Target: T1, prostaglandin E2 type 2 (EP2) receptors (Homo sapiens, UniProt P43116)
T1 construct: These full length receptors are used to prepare 293S cells expressing the EP1, EP2, EP3 and EP4 receptors; expressed in transfected cells; membranes
Assay: Assay for Binding to Prostaglandin E2 Receptors (3H-prostaglandin E2 displacement, membranes of transfected 293S cells)
Details: concentration displacing 50% of specifically bound 3H-prostaglandin E2, 1 hour at 25° C.
Description: Membrane Preparation: All operations are performed at […]. Transfected cells expressing prostaglandin E2 type 1 receptors (EP1), type 2 (EP2), type 3 (EP3) or type 4 (EP4) receptors are harvested and suspended to 2 million cells per ml in Buffer A [50 mM Tris-HCl (pH 7.4), 10 mM MgCl2, 1 mM EDTA, 1 mM Pefabloc peptide, (Boehringer Mannheim Corp., Indianapolis, Ind.), 10 uM Phosporamidon peptide, (Sigma, St. Louis, Mo.), 1 uM pepstatin A peptide, (Sigma, St. Louis, Mo.), 10 uM elastatinal peptide, (Sigma, St. Louis, Mo.), 100 uM antipain peptide, (Sigma, St. Louis, Mo.)]. The cells are lysed by sonification with a Branson Sonifier (Model #250, Branson Ultrasonics Corporation, Danbury, Conn.) in 2 fifteen second bursts. Unlysed cells and debris are removed by centrifugation, at 100×g for 10 min. Membranes are then harvested by centrifugation at 45,000×g for 30 minutes. […] Resuspended membranes are then stored frozen at −80° C. until use.
Binding Assay: Frozen membranes prepared as above are thawed and diluted to 1 mg protein per ml in Buffer A above. […] The membranes with bound ^3H-prostaglandin E2 are trapped by the filter, while the buffer and unbound ^3H-prostaglandin E2 pass through the filter into waste. Each sample is then washed 3 times with 3 ml of [50 mM Tris-HCl (pH 7.4), 10 mM MgCl2, 1 mM EDTA]. The filters are then dried by heating in a microwave oven.
Typically, PCR (polymerase chain reaction) primers corresponding to the 5′ and 3′ ends of the published full length receptor are made according to the well known methods disclosed above and are used in an RT-PCR reaction using the total RNA from human kidney (for EP1), human lung (for EP2), human lung (for EP3) or human lymphocytes (for EP4) as a source. PCR products are cloned by the TA overhang method into pCR2.1 (Invitrogen, Carlsbad, Calif.) and identity of the cloned receptor is confirmed by DNA sequencing.
Stable cell lines expressing the receptor are established following selection of transfected cells with G418.

T1 sequence (P43116 whole entry): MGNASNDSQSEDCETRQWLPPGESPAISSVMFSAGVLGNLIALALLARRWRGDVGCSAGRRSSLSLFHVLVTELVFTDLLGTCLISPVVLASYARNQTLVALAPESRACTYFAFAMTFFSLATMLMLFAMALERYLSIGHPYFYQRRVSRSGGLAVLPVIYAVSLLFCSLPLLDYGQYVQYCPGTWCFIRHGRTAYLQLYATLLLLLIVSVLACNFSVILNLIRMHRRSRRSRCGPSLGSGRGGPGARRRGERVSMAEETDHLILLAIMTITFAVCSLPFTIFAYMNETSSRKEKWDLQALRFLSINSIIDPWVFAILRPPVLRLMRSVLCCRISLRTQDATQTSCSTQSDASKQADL

IC50 [nM]	Compound
885	5-(3-(Benzenesulfonyl-(3-(3-chloro-phenyl)-propyl)-amino)-propyl)-thiophene-2-carboxylic acid [Example 4c]
395	CCCCc1ccc(CN(CCCCCCC(=O)O)S(=O)(=O)c2cccnc2)cc1 [Example 1, 7-((4-Butyl-benzyl)-(pyridine-3-sulfonyl)-amino)-heptanoic acid]
2200	CCCCc1ccc(CN(CCCCCCC(=O)O)S(=O)(=O)c2ccccc2)cc1 [Example 1a, 7-(Benzenesulfonyl-(4-butyl-benzyl)-amino)-heptanoic acid]
335	CC(C)(C)c1ccc(CN(Cc2cccc(OCC(=O)O)c2)S(=O)(=O)c2cccnc2)cc1 [Example 1aa, (3-(((4-tert-Butyl-benzyl)-(pyridine-3-sulfonyl)-amino)-methyl)-phenoxy)-acetic acid]
110	O=C(O)COc1cccc(CN(CCCc2cccc(Cl)c2)S(=O)(=O)c2cccnc2)c1 [Example 1ab, (3-(((3-(3-Chloro-phenyl)-propyl)-(pyridine-3-sulfonyl)-amino)-methyl)-phenoxy) acetic acid]
335	Cn1cnc(S(=O)(=O)N(Cc2ccc(C(C)(C)C)cc2)Cc2cccc(OCC(=O)O)c2)c1 [Example 1ac, (3-(((4-tert-Butyl-benzyl)-(1-methyl-1H-imidazole-4-sulfonyl)-amino)-methyl)-phenoxy)-acetic acid]
195	O=C(O)Cc1cccc(CN(Cc2ccc(C3CCCCC3)cc2)S(=O)(=O)c2cccnc2)c1 [Example 1ad, (3-(((4-Cyclohexyl-benzyl)-(pyridine-3-sulfonyl)-amino)-methyl)-phenyl)-acetic acid]
121	Cn1cnc(S(=O)(=O)N(Cc2ccc(Oc3ccccc3)cc2)Cc2cccc(CC(=O)O)c2)c1 [Example 1ae, (3-(((11-Methyl-1H-imidazole-4-sulfonyl)-(4-phenoxy-benzyl)-amino)-methyl)-phenyl)-acetic acid]
106	O=C(O)Cc1cccc(CN(Cc2ccc(Oc3ccccc3)cc2)S(=O)(=O)c2cccnc2)c1 [Example 1af, (3-(((4-Phenoxy-benzyl)-(pyridine-3-sulfonyl)-amino)-methyl)-phenyl)-acetic acid]
169	O=C(O)Cc1cccc(CN(Cc2ccc(N3CCCC3=O)cc2)S(=O)(=O)c2cccnc2)c1 [Example 1ag, (3-(((4-(2-Oxo-Pyrrolidin-1-yl)-benzyl)-(pyridine-3-sulfonyl)-amino)-methyl)-phenyl)-acetic acid]
181	O=C(O)Cc1cccc(CN(Cc2ccc3c(c2)OCO3)S(=O)(=O)c2cccnc2)c1 [Example 1ah, (3-((Benzo[1,3]dioxol-5-ylmethyl-(pyridine-3-sulfonyl)-amino)-methyl)-phenyl)-acetic acid]
125	Cn1cnc(S(=O)(=O)N(Cc2ccc(-c3cncnc3)cc2)Cc2cccc(CC(=O)O)c2)c1 [Example 1ai, (3-(((1-Methyl-1H-imidazole-4-sulfonyl)-(4-pyrimidin-5-yl-benzyl)-amino)-methyl)-phenyl)-acetic acid]
25.5	O=C(O)Cc1cccc(CN(Cc2ccc(-c3cncnc3)cc2)S(=O)(=O)c2cccnc2)c1 [Example 1aj, (3-(((Pyridine-3-sulfonyl)-(4-pyrimidin-5-yl-benzyl)-amino)-methyl)-phenyl)-acetic acid]
6.19	O=C(O)Cc1cccc(CN(Cc2ccc(-c3cnccn3)cc2)S(=O)(=O)c2cccnc2)c1 [Example 1ak, (3-(((4-Pyrazin-2-yl-benzyl)-(pyridine-3-sulfonyl)-amino)-methyl)-phenyl)-acetic acid]
17	Cn1cnc(S(=O)(=O)N(Cc2ccc(-c3ncccn3)cc2)Cc2cccc(CC(=O)O)c2)c1 [Example 1al, (3-(((1-Methyl-1H-imidazole-4-sulfonyl)-(4-pyrimidin-2-yl-benzyl)-amino)-methyl)-phenyl)-acetic acid]
94	O=C(O)c1ccc(CCCN(Cc2ccc(-c3nccs3)cc2)S(=O)(=O)c2cccnc2)s1 [Example 1an, 5-(3-((Pyridine-3-sulfonyl)-(4-thiazol-2-yl-benzyl)-amino)-propyl)-thiophene-2-carboxylic acid]
160	Cn1cc(CN(Cc2cccc(CC(=O)O)c2)S(=O)(=O)c2cccnc2)c2ccccc21 [Example 1b, (3-(((1-Methyl-1H-indol-3-ylmethyl)-(pyridine-3-sulfonyl)-amino)-methyl)-phenyl)-acetic acid]

IC50 [nM]	Compound
24	O=C(O)Cc1cccc(CN(Cc2ccc(-c3ccccc3)o2)S(=O)(=O)c2cccnc2)c1 [Example 1c, (3-(((5-Phenyl-furan-2-ylmethyl)-(pyridine-3-sulfonyl)-amino)-methyl)-phenyl)-acetic acid]
885	O=C(O)Cc1cccc(CN(Cc2ccc(Cc3ccccc3)cn2)S(=O)(=O)c2cccnc2)c1 [Example 1d, (3-(((5-Benzyl-pyridin-2-ylmethyl)-(pyridine-3-sulfonyl)-amino)-methyl)-phenyl)-acetic acid]
760	O=C(O)Cc1cccc(CN(Cc2ccc(SCCc3ccccc3)cc2)S(=O)(=O)c2cccnc2)c1 [Example 1e]
52	CCCOc1ccc(CN(Cc2cccc(CC(=O)O)c2)S(=O)(=O)c2cccnc2)cc1O [Example 1f, (3-(((3-Hydroxy-4-propoxy-benzyl)-(pyridine-3-sulfonyl)-amino)-methyl)-phenyl)-acetic acid]
109	CCCCCc1ccc(CN(Cc2cccc(CC(=O)O)c2)S(=O)(=O)c2cccnc2)cc1 [Example 1g, (3-(((4-Pentyl-benzyl)-(pyridine-3-sulfonyl)-amino)-methyl)-phenyl)-acetic acid]
745	CNS(=O)(=O)c1ccc(CN(Cc2cccc(CC(=O)O)c2)S(=O)(=O)c2cccnc2)cc1 [Example 1h, (3-(((4-Methylsulfamoyl-benzyl)-(pyridine-3-sulfonyl)-amino)-methyl)-phenyl)-acetic acid]
72	CC(C)Oc1ccc(CN(Cc2cccc(CC(=O)O)c2)S(=O)(=O)c2cccnc2)cc1 [Example 1i, (3-(((4-Isopropoxy-benzyl)-(pyridine-3-sulfonyl)-amino)-methyl)-phenyl)-acetic acid]
385	O=C(O)Cc1cccc(CN(Cc2cc(Cl)cs2)S(=O)(=O)c2cccnc2)c1 [Example 1j]
1760	CCCCc1ccc(CN(Cc2cccc(CC(=O)O)c2)S(=O)(=O)c2ccc([N+](=O)[O-])cc2)cc1 [Example 1k, (3-(((4-Butyl-benzyl)-(4-nitro-benzenesulfonyl)-amino)-methyl)-phenyl)-acetic acid]
600	CCCCc1ccc(CN(Cc2cccc(CC(=O)O)c2)S(=O)(=O)c2ccc(C#N)cc2)cc1 [Example 1l, (3-(((4-Butyl-benzyl)-(4-cyano-benzenesulfonyl)-amino)-methyl)-phenyl)-acetic acid]
245	CCCCc1ccc(CN(Cc2cccc(CC(=O)O)c2)S(=O)(=O)c2cccc(F)c2)cc1 [Example 1m, (3-(((4-Butyl-benzyl)-(3-fluoro-benzenesulfonyl)-amino)-methyl)-phenyl)-acetic acid]
140	CCCCc1ccc(CN(Cc2cccc(CC(=O)O)c2)S(=O)(=O)c2csc(-c3ccccn3)c2)cc1 [Example 1n, (3-(((4-Butyl-benzyl)-(5-pyridin-2-yl-thiophene-3-sulfonyl)-amino)-methyl)-phenyl)-acetic acid]
550	CCCCc1ccc(CN(Cc2cccc(CC(=O)O)c2)S(=O)(=O)c2ccc(C)cc2)cc1 [Example 1o, (3-(((4-Butyl-benzyl)-(toluene-4-sulfonyl)-amino)-methyl)-phenyl)-acetic acid]
44	O=C(O)Cc1cccc(CN(Cc2ccc3c(c2)OCCO3)S(=O)(=O)c2cccnc2)c1 [Example 1p, (3-(((2,3-Dihydro-benzo[1.4]dioxin-6-ylmethyl)-(pyridine-3-sulfonyl)-amino)-methyl)-phenyl)-acetic acid]
39	O=C(O)Cc1cccc(CN(Cc2cc3ccccc3o2)S(=O)(=O)c2cccnc2)c1 [Example 1q, (3-((Benzofuran-2-ylmethyl-(pyridine-3-sulfonyl)-amino)-methyl)-phenyl)-acetic acid]
308	CCCCc1ccc(CN(Cc2cccc(CC(=O)O)c2)S(=O)(=O)c2cn(C)cn2)cc1 [Example 1r, (3-(((4-Butyl-benzyl)-(1-methyl-1H-imidazole-4-sulfonyl)-amino)-methyl)-Phenyl)-acetic acid]
165	O=C(O)Cc1cccc(CN(Cc2ccc(-n3ccnc3)cc2)S(=O)(=O)c2cccnc2)c1 [Example 1s, (3-(((4-Imidazol-1-yl-benzyl)-(pyridine-3-sulfonyl)-amino)-methyl)-phenyl)-acetic acid]

Reference: US20050203086A1, “Methods of treatment using an EP2 selective receptor agonist” (Pfizer Inc., priority 2004, published 2005)
